# Results as given in patent US11331290B2, “Niclosamide for the treatment of cancer metastasis” (Max-Delbrück-Centrum für Molekulare Medizin in der …, priority 2011, dated 2022).
# Assays:
# Assay type in all cases: cell-based, human
# SW620 cells = test: Boyden chamber transwell migration assay; conditions: 1 μM, 24 h
# Description: (§1) HCT116, SW620, LS174T, SW480 and DLD-1 cells were used in cell migration and invasion analysis performed with Boyden chamber assay. 400 μL containing 2.5×10^5 cells were seeded into each transwell chamber with filter membranes of 12.0 μm pore size (Millipore, Schwalbach, Germany). For invasion filter membranes were coated with 50 μL Matrigel (diluted 1:3 in RPMI-1640; BD Biosciences) 10 minutes before cells were seeded. Fresh medium (600 μL) were added to the bottom chamber and cells were allowed to attach to the insets for 15 hours. Both chambers were treated with 1 μM niclosamide or the respective amount of DMSO and incubated at 37° C. and 5% CO2 in a humidified incubator for 24 hours. Afterwards insets were removed and cells that had migrated through the membrane to the lower chamber were trypsinized and counted in a Neubauer chamber (LO-Laboroptik, Bad Homburg, Germany). Each well was counted ten times. Each migration or invasion experiment was performed in duplicate. The average number of migrated or invaded cells was determined for at least three independent experiments.
# (§2) (A) S100A4 expression under niclosamide treatment. Cells were treated with 1 μM niclosamide for 24 hours. S100A4 expression was analyzed with qRT-PCR and immunoblot. (B) Cell migration under niclosamide treatment. Migration rates of cells treated with 1 μM niclosamide for 24 hours were determined in a Boyden chamber assay values were normalized to solvent-treated SW620 cells. (C) Cell invasion under niclosamide treatment. Cells were seeded onto Matrigel covered transwells and treated with 1 μM niclosamide for 24 hours. Invaded cells in the lower chamber were counted and normalized to solvent-treated SW620 cells. Differences in solvent vs. niclosamide-treated cells were analyzed by Student's t test. Data represent mean±SE of at least two independent experiments each performed in triplicate. (D) Directed migration under niclosamide treatment. Wounds of 300 μM width were set in a 60% confluent monolayer of cells on day 1. Cells were treated daily with 1 μM niclosamide for 4 days. Microphotographs of day 4 are presented here with black lines indicating margins of the wound on day 1; scale bar represents 200 μM. Directed migration data shown are representatives of three independent experiments. (E) Adhesive cell proliferation under niclosamide treatment. Cells were treated daily with 1 μM niclosamide. The amount of viable cells per well was determined by MTT assay. (F) Anchorage-independent cell growth under niclosamide treatment. Cells were plated as single cells into 0.33% (w/v) agarose and treatment (solvent or 1 μM niclosamide) containing medium. After 7 days colonies were visualized by light microscopy at 10× (overview) and 40× (single colony) magnification. (G) Quantification of colonies formed. Number of colonies (of more than 4 cells) was counted and normalized to solvent-treated SW620 cells. Differences in solvent vs. niclosamide-treated cells were analyzed by Student's t test. Data represent mean mean±SE of at least two independent experiments each performed in duplicates.
# SW480 cells = test: Boyden chamber transwell migration assay; conditions: 1 μM, 24 h
# Description: as §1, §2
# [1] = test system: WNT/CTNNB1 pathway (LEF/TCF transcription factor reporter); test: WNT/CTNNB1 pathway activity reporter assay (TOP/FOPflash); conditions: 24 h
# Source text: The lymphoid enhancer-binding factor 1 (LEF)/transcription factor (TCF) activity reporter assay, also known as TOP/FOPflash assay (Promega, Madison, Wis.) was previously used to analyze the WNT/CTNNB1 pathway activity in human colon cancer cells (24). It comprises the TOPflash plasmid which contains a hexameric repetition of the LEF/TCF-binding element upstream of a thymidine kinase (TK) promoter and firefly luciferase as reporter gene. The FOPflash plasmid comprised the exact sequence of the TOPflash plasmid, but with point mutated LEF/TCF-binding sites. In the assay, 8×10^4 HCT116 cells were plated in 24-well-plates and were given 15 hours to attach to the bottom of the well. Cells were transfected with TOPflash or FOPflash plasmids using Metafecten according to the manufacturer's instruction 24 hours before they were treated with 1 μM niclosamide or the respective amount of DMSO for another 24 hours. Luciferase activity as read out for LEF/TCF activity and thus WNT/CTNNB1 pathway activity was measured by the Steady Glow™ Luciferase Assay System (Promega) according to the manufacturer's instructions in the luminescence reader SpectraFluor Plus (Tecan) with 1500 milliseconds exposure time and a gain of 150. TOPflash reporter gene expression (representing the WNT pathway activity) was normalized to FOPflash reporter gene expression (representing basal reporter gene expression and transfection efficiency). The average of three independent experiments is given here, whereas each experiment was performed in duplicate.
# For WNT pathway analysis the following cells were applied: HCT116 cells (heterozygous for gain-of-function-mutated CTNNB1; wt/mut), HAB-68mut cells (deletion mutant of HCT116, expressing only gain-of-function-mutated CTNNB1: −/mut) and HAB-92 wt cells (deletion mutant of HCT116, expressing only wild-type CTNNB1: wt/−). (A) CTNNB1 genotype dependent effect of niclosamide on LEF/TCF transcription factor reporter gene expression. Cells were treated with 1 μM niclosamide for 24 hours. Reporter gene expression was determined by luciferase activity measurement. For each condition and cell line TOPflash expression was normalized to FOPflash expression. (B) CTNNB1 genotype dependent effect of niclosamide on S100A4 expression. Cells were treated with 1 μM niclosamide for 24 hours. S100A4 expression was analyzed by qRT-PCR and immunoblot. (C) CTNNB1 genotype dependent effect of niclosamide on migration rates. Cells were treated with 1 μM niclosamide for 24 hours and cell migration was determined by Boyden chamber assay. Data represents mean±SE of at least three independent experiments. Differences were analyzed by Student's t test (n.s.; not statistically significant). (D) Nuclear localization of CTNNB1 under niclosamide treatment. Nuclear extracts of HCT116 cells treated with the indicated concentrations of niclosamide for 18 hours were analyzed by immunoblot. (E) Effect of niclosamide on CTNNB1/TCF complex. Nuclear extracts of HCT116 cells treated with the indicated concentrations of niclosamide for 18 hours were analyzed by EMSA for the TCF-binding site of the S100A4 promoter. Supershift was performed by addition of a monoclonal anti-CTNNB1 antibody. (F) Presence of CTNNB1 on the S100A4 promoter under niclosamide treatment. HCT116 cells were treated with 1 μM niclosamide for 18 hours and processed for ChIP assay. Soluble chromatin was immunoprecipitated with a monoclonal anti-CTNNB1 antibody or a nonspecific control IgG antibody. Primers used in PCR amplified a 167 bp fragment of the S100A4 promoter or 149 bp fragment of the FOS promoter. The input verified the integrity of the PCR. […] Data shown are representatives of at least two independent experiments.
structure (smiles),measurement,setting,value
"O=C(Nc1ccc([N+](=O)[O-])cc1Cl)c1cc(Cl)ccc1O [niclosamide, 2′,5-dichloro-4′-nitrosalicylanilide]","migration, mean difference control vs niclosamide",SW620 cells,52.1%
same,"cell migration rate, mean % (normalized to solvent-treated SW620 cells)",SW620 cells; solvent control 100.0%,47.9%
same,"migration, mean difference control vs niclosamide",SW480 cells,11.1%
same,"cell migration rate, mean % (normalized to solvent-treated SW620 cells)",SW480 cells; solvent control 21.7%,10.6%
same,"WNT pathway activity, mean difference control vs niclosamide","[1]; HAB-68mut, 1 μM",0.90
same,"WNT pathway activity (TOPflash normalized to FOPflash), mean","[1]; HAB-68mut, 1 μM, control 1.39",0.50
same,"WNT pathway activity, mean difference control vs niclosamide","[1]; HAB-92 wt, 1 μM",0.15
same,"WNT pathway activity (TOPflash normalized to FOPflash), mean","[1]; HAB-92 wt, 1 μM, control 0.36",0.21
same,"WNT pathway activity, mean difference control vs niclosamide","[1]; HCT116, 1 μM",0.61
same,"WNT pathway activity (TOPflash normalized to FOPflash), mean","[1]; HCT116, 1 μM, control 1.00",0.39
